Series [1] deals with melanocytes in co-culture. Kind of series: Activity on the dendricity of melanocytes (melanocyte/keratinocyte co-culture, NKlbeteb labelling). It counts as cell-based. To be noted: 7 days treatment, 100 μg per ml; test concentration: T1 312 μM, T2 327 μM, A 230 μM, B 262 μM. On the procedure:
The aim of this test is to show the effect of the compounds used according to the invention on the morphological modulation of melanocytes.
The melanocytes are treated immediately on inoculation with the compounds according to the invention for 7 days. The compounds are used at a dose of 100 μg per ml.
The melanocytes are labelled using the antibody NKlbeteb (green coloration), which recognizes melanosomes at any stage of maturation. The nucleus of all the cells, melanocytes and keratinocytes, is stained using propidium iodide (red coloration).
In the absence of the compounds according to the invention, the melanocytes in co-culture are highly dendritic. The pigment is visibly transferred to the neighbouring keratinocytes.

Series [2] in a line: Cytotoxicity by estimating the incorporation of leucine. It counts as cell-based. The protocol: (§1) The following were determined for each test compound:
the cytotoxicity, by estimating the incorporation of leucine, […]

For another series, the system named is melanogenesis. Kind of series: Activity on melanogenesis (ratio of thiouracil to leucine incorporation). It is filed as cell-based. The note with it: for IC50: read-out: IC50 (concentration for which a 50% inhibition of melanogenesis is observed); for Inhibitory activity on melanogenesis: relative to 100% of control, test concentration: T1 312 μM, T2 327 μM, A 230 μM, B 262 μM. The protocol: The melanogenesis-modulating effect of the compounds of formula (I) was measured according to the method described in patent application EP-0 993 826 filed by the Applicant, and also in the article by R. Schmidt, P. Krien and M. Regnier, Anal. Biochem., 235(2), 113-18, (1996).
as §1
the inhibitory activity on melanin synthesis, by estimating the ratio of the incorporation of thiouracil to the incorporation of leucine, relative to 100% of the control (the control corresponds to the test performed without test compound),
the IC50 value, which corresponds to the micromolar (μM) concentration for which a 50% inhibition of melanogenesis is observed.

For a further series, the target named is T1, tyrosinase (Homo sapiens, UniProt P14679).
T1 sequence (P14679 19-529): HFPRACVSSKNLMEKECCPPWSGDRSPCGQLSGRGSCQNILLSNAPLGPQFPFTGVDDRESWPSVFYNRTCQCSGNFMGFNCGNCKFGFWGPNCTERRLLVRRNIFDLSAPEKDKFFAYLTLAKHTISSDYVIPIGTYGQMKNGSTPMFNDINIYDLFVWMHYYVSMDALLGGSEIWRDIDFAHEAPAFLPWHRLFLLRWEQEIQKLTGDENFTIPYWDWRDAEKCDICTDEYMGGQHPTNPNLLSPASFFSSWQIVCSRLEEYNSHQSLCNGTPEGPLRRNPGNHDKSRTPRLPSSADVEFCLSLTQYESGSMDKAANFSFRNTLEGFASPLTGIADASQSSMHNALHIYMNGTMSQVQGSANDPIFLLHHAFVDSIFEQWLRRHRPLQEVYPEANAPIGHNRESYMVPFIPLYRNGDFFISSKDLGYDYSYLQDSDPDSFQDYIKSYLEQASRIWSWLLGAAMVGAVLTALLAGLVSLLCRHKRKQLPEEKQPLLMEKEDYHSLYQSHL
The note with it: J. Soc. Cosmet. Chem., 42, 1991; cited from earlier work.

In the next series the test system is melanocytes. To be noted: Pigment. Cell. Res., 13, 2000; cited from earlier work.

“Also recorded” adds a separate entry of the source.

For `COc1cc(/C=C/C(=O)OC2=C(O)C(C3COC(C)(C)O3)OC2=O)ccc1OC(C)=O` (centres unmarked) [Compound A, 5-(2,2-dimethyl[1,3]dioxolan-4-yl)-4-hydroxy-2-oxo-2,5-dihydro-3-furanyl 3-[(4-acetoxy-3-methoxy)phenyl]acrylate], in series [1], the Dendricity result is “Bipolar” and the Transfer of pigmentation result is given as “reduced; also recorded: Little”. Also, in series [2], the Cytotoxicity result was “No”. The IC50 in the series on melanogenesis was determined as 200 µM.
For `COc1cc(/C=C/C(=O)OC2=C(O)C(C3COC(C)(C)O3)OC2=O)ccc1O` (centres unmarked) [Compound B, 5-(2,2-dimethyl[1,3]dioxolan-4-yl)-4-hydroxy-2-oxo-2,5-dihydro-3-furanyl 3-[(4-hydroxy-3-methoxy)phenyl]acrylate], in that order: “Bipolar”, “reduced; also recorded: Little”, “No” and 500 µM.
On to `O=C(/C=C/c1ccccc1)OC1=C(O)[C@@H]([C@@H](O)CO)OC1=O` [Compound T2, ascorbyl 2-cinnamate], for which, in series [1], the Dendricity result is on record as “Multipolar” and the Transfer of pigmentation result is “Large”. Besides, the Cytotoxicity result in series [2] was “No”. Further, in the series on melanogenesis, the “IC50 (concentration for which a 50% inhibition of melanogenesis is observed)” value is recorded as “No effect” and the “Inhibitory activity on melanogenesis” value was “No effect”.
For `O=C1O[C@H]([C@@H](O)CO)C(O)=C1O` [ascorbic acid], on tyrosinase, the Effect on tyrosinase result is “inhibitory effect”.
Take `O=C1O[C@H]([C@@H](O)CO)C([O-])=C1OP(=O)([O-])[O-].O=C1O[C@H]([C@@H](O)CO)C([O-])=C1OP(=O)([O-])[O-].[Mg+2].[Mg+2].[Mg+2]` [magnesium ascorbyl phosphate]: in the series with melanocytes, the “Dendricity of the melanocytes” value is “reduce the dendricity” and the Melanin transfer entry is “effect on melanin transfer”.
For “methyl 2,3-bis-acetate of ascorbic acid [Compound T1]”, in series [1], the Dendricity entry is recorded as “Multipolar” and the Transfer of pigmentation entry is “Large”. In addition, in the series on melanogenesis, the “IC50 (concentration for which a 50% inhibition of melanogenesis is observed)” value is recorded as “No effect” and the “Inhibitory activity on melanogenesis” value is “No effect”.

The record behind these values is patent US20040161391A1, “Ascorbic acid compounds as bleaching agents” (L'OREAL, priority 2002, published 2004).
